For one assay, the system named is scopolamine treated mice. In words: Barnes maze, scopolamine induced deficits in learning and memory. The class given is in vivo, C57BL/6 mice. The source says:
The animals are placed on an elevated, open, circular platform. The animal is exposed to intense light, or to a loud noise. In response to this intense stimulation the animal searches for shelter and enters one of the holes around the platform. Although the device was originally designed to be used with rats, soon it experienced modifications in order to be used with mice as well. Indeed, the device has been considered appropriate for this species because of its ability to find and escape through small holes.
Scopolamine, a muscarinic cholinergic antagonist, is known to cause impairments in Barnes maze testing. These impairments can be reversed by increasing cholinergic tone by the administration of cholinesterase inhibitors such as donepezil.
The scopolamine induced deficits in learning were evidenced by the increase in both total and primary errors, total and primary latency and total and primary path length. The Barnes mazes testing involves the parameters as set forth below.
Primary Path Length (cm): The distance moved by the subject before first contact with the escape hole. First contact is defined as the point of the nose touching the escape hole.
Total Path Length (cm): The distance moved by the subject before completing the task. Completion of task is defined as the entering of the subject into escape box. This ends the trial.
Primary Errors: The count of the number of errors made by the subject before first contact with the escape hole. Any contact of the nose point to a non-escape hole is considered as an error. Multiple contacts to the same non-escape hole are counted as multiple errors under this context. Total Errors: The count of the number of errors made by the subject throughout the trial. Any contact of the nose point to a non-escape hole is considered as an error. Multiple contacts to the same non-escape hole are counted as multiple errors under this context. Primary Latency (sec): The latency to the first contact with the escape hole by the nose point of the subject. Total Latency (sec): The latency for subject to complete the task. Completion of task is defined as the entering of the subject into escape box, which ends the trial. (i) Test Article
The test articles, propriety Polygonum minus extract and commercially available Ginkgo biloba extract (comparator extract) were used in this study. These extracts were prepared and stored for the project to the supplier's specifications. The doses of the extract chosen for the study were identified by the supplier A 30× stock suspension was prepared every week for each article. This was aliquot into batches which were then stored at 4° C. throughout the week. The stock suspension was diluted with ultra-pure water to working concentration every day before the dosing, and discarded after the dosing. Oral gavage needles were filled with the required amounts of suspension. Care was taken to ensure the even distribution of particles by vortex-mixing the suspensions before preparation in individual syringes, and also by syringe-mixing the diluted test article. The dose and time of scopolamine administration has been previously shown to produce deficits in spatial navigation tasks in rodents. The dose was increased from the initially reported 0.3 mg/kg to 0.5 mg/kg, as the higher dose would produce a more reliable deficit.
2-6 month-old male C57BL/6 mice (20-25 g), (n=12 to 14) were supplied by BioLASCO (Taiwan). They were housed in an IVC system (Allentown, USA) under a 12/12-h light/dark (200-300 Lux) cycle (lights on 07:00 h) with free access to food (Labdiet, formulated laboratory chow) and water and humidity keep between 50%-70%. The total animals used for each treatment are shown in the Table 13 below (subjects used for each arm in the experiment).
Chronic treatment via p.o. was conducted with the TEST COMPOUNDS (test dose 1 and 2) as per Table 12 and Table 12 above and CONTROL […] (vehicle and ginkgo) continuously for 19 days. Dosing was given daily at 1800 hr. […]

Assay [1] deals with Collagenase from Clostridium histolyticum. The experiment in a line: Collagenase inhibition bioassay in vitro (EnzChek gelatinase/collagenase kit). Format: biochemical. The method, then: Solvents and reagents: EnzChek™gelatinase/Collagenase Assay kit (E12055, Molecular probes, Invitrogen, USA, Stored at −20° C.) containing: DQ gelatin from pigskin, Flourescein conjugate, 10× reaction buffer, 1,10 Phenanthroline monohydrate, Collagenase from Clostridium histolyticum.
2.5 mg of sample was prepared by dissolving it into 200 μl of DMSO and made up to 10 ml with 1× reaction buffer. Further dilutions were made as required. The enzymatic cleavage of DQ gelatin, Flourescein conjugate releases flourescent peptide. The increase in fluorescence is proportional to proteolytic activity. The digested product form DQ gelatin, Flourescein conjugate is excited with light at 490 nm and the emitted light at 520 nm is detected in a fluorometric plate reader.
Collagenase inhibition assay was carried out as per the kit insert of EnzChek™gelatinase/Collagenase Assay kit (E12055, Molecular probes, Invitrogen, USA). In brief, 80 μl of 1× reaction buffer/vehicle buffer/test solution/positive control of various concentrations, 100 μl of enzyme solution (0.1 units/ml), 20 μl of substrate solution (1 mg/ml) were added and mixed for 15 sec, incubated at 25° C. for 2 hours and read in a fluorescence microplate reader [Fluostar Optima, BMG Labtech, Germany] with the following parameters wherein it was excited at 490 nm, and the emission at 520 nm was recorded by the Costar 96 fluorometric plate reader.
A control reaction was carried out without the test samples respective sample blanking, control blanking and vehicle blanking were done (which contained all reagents except the enzymes). The percentage inhibition was calculated as follows:
[formula] where AFU=arbitrary fluorescence units and IC50 was calculated using log-probit analysis.

Setting [2] is: scopolamine 0.5 mg/kg i.p. vs vehicle control treated group.
[3] abbreviates: scopolamine 0.5 mg/kg i.p. vs vehicle treated control mice.
Setting [4] is: donepezil 1 mg/kg i.p. + scopolamine.

Read-outs that look alike come from different tables or passages of the source.

With `CN1[C@@H]2C[C@@H](OC(=O)[C@H](CO)c3ccccc3)C[C@H]1[C@@H]1O[C@@H]12` [scopolamine], the “Primary and total latency, learning” value in the assay on scopolamine treated mice (scopolamine 0.5 mg/kg i.p. vs vehicle control) is “induces a deficit in learning”. In the assay on scopolamine treated mice (setting [2]), the “Primary path length, performance” value is “decreased performance only on day two”; the “Total path length, days with decreased performance” value was “days one two and three”. In addition, in the assay with scopolamine treated mice (setting [3]), the “Primary errors, learning” value is reported as “induced a deficit in learning on day two”; the “Total errors, days with deficit in learning” value was “on days one and two”. Also, the “Probe trial, preference for target segment (memory)” value with scopolamine treated mice (scopolamine 0.5 mg/kg i.p., day 5) was “induced a deficit in memory”.
Turning to `O.c1cnc2c(c1)ccc1cccnc12` [1,10-Phenanthroline monohydrate], the % inhibition (commonly how much of the control response was suppressed) worked out at 40.81% in assay [1], 0.00% in assay [1] (12.5 μM), 11.60% in assay [1] (25 Mm) and 88.00% in assay [1] (100 Mm). Moreover, the IC50 (commonly the concentration at which inhibition is half-maximal) in assay [1] (log-probit analysis, read-out: IC50 (95% confidence interval)) came out at 53.2 µM.
As to `COc1cc2c(cc1OC)C(=O)C(CC1CCN(Cc3ccccc3)CC1)C2` (stereo not shown) [donepezil], in the assay on scopolamine treated mice (setting [4]), the “Primary and total latency, scopolamine induced deficit” value is “A similar result is obtained”; the “Scopolamine induced deficits in acquisition (learning) phase” value was “attenuated”. The “Path length, scopolamine induced deficit” value in the assay with scopolamine treated mice (donepezil 1 mg/kg i.p. + scopolamine 0.5 mg/kg i.p.) is recorded as “did not show a scopolamine induced deficit”. Besides, the “Probe trial, time spent in target segment (memory deficit)” value with scopolamine treated mice (donepezil 1 mg/kg i.p. + scopolamine, day 5) was “reversed the scopolamine deficit”. Besides, the “Total errors, scopolamine induced deficit” value with scopolamine treated mice (donepezil 1 mg/kg i.p. + scopolamine, days one and two) was “deficits for total errors were not seen”.

The record behind these values is patent US9877993B2, “Composition for cognitive and cosmetic purposes” (BIOTROPICS MALAYSIA BERHAD, priority 2012, dated 2018).
